Values quoted from earlier work in patent US20260217893A1, “ACID-BLOCKED PYRROLIDINE CATALYSTS FOR POLYURETHANE FOAM” (Huntsman Petrochemical LLC, priority 2019, published 2026).

conditions: refs 2-5: CRC Handbook, U.S. Pat. No. 9,051,442, J. Org. Chem. 1961, J. Chem. Eng. Data 2016

Q: Which pKa does the source give for `CN(C)CCN(C)CCO` [JEFFCAT ® Z-110, N,N,N-trimethylaminoethyl-ethanolamine] here?
A: Its pKa is 9.18.

Q: Which pKa does the source give for `CN(C)CCOCCO` [JEFFCAT ® ZR-70, 2-(2-dimethylaminoethoxy) ethanol] here?
A: The pKa was 9.1.

Q: Which pKa does the source give for `CN(C)CCN(C)CCN(C)C` [PMDETA, pentamethyldiethylenetriamine] here?
A: Its pKa is 9.1.

Q: With `CN(C)C1CCCCC1` [dimethylcyclohexylamine, N,N-dimethylcyclohexylamine] as the molecule, how does the pKa read?
A: The pKa was 10.1.
